{"source": "patent US6630343B1", "about": "“Hepatitis C virus culture system” (priority 1999, dated 2003)", "key": {"[1]": {"test_system": "Huh 7 cell clones 9-13 and 8-1", "assay": "[3H] uridine labeling of RNA in the presence of dactinomycin: cellular RNA synthesis", "assay_type": "cell-based, human", "details": "4 μg/ml dactinomycin, 16 hrs", "procedure": "(§1) To confirm this assumption, cells were incubated with [^3H] uridine in the presence of dactinomycin, the radioactively labeled RNAs were extracted, separated by means of denaturing agarose gel electrophoresis and analyzed with the aid of a common Bio-Imager using a [^3H]-sensitive screen. For this purpose approx. 5×10^5 cells of the clones 9-13 and 8-1 were incubated at a time with 100 μCi [^3H] uridine for 16 hrs. in the absence (−) or presence (+) of 4 μg/ml of dactinomycin (Dact). Following this labeling reaction the total RNA was prepared and analyzed by means of formaldehyde-agarose gel electrophoresis. Only 1/10 of the total RNA is illustrated in the first two lanes. The radioactively labeled RNA was visualized using a BAS-2500 Bio-Imager (Fuji)."}, "HCV RNA": {"test_system": "HCV RNA", "assay": "[3H] uridine labeling of RNA in the presence of dactinomycin: HCV-RNA replication", "assay_type": "cell-based, hepatitis C virus", "details": "4 μg/ml dactinomycin, 16 hrs, clone 9-13", "procedure": "as §1"}}, "note": "Starred links: 1 amine or outer side, 2 acyl side, 3 side chain; linkers in the order of their positions; H or OH if unused. Positions of bridges follow the written chain, without caps; N, C: chain ends. Non-standard residues stand in square brackets, D forms with d. Residues, ends and D or L forms follow the SMILES beside them. Chains are numbered I, II in the order given. Actinocin(9to1) = Cc1c2oc3c(C)ccc(C(=O)[*:1])c3nc-2c(C(=O)[*:2])c(N)c1=O; NMeV = CN[C@H](C(=O)O)C(C)C; Sar = CNCC(=O)O", "data": [{"smiles": "Cc1c2oc3c(C)ccc(C(=O)N[C@@H]4C(=O)N[C@H](C(C)C)C(=O)N5CCC[C@H]5C(=O)N(C)CC(=O)N(C)[C@@H](C(C)C)C(=O)O[C@@H]4C)c3nc-2c(C(=O)N[C@@H]2C(=O)N[C@H](C(C)C)C(=O)N3CCC[C@H]3C(=O)N(C)CC(=O)N(C)[C@@H](C(C)C)C(=O)O[C@@H]2C)c(N)c1=O", "note": "[dactinomycin] (I: T[dV]P[Sar][NMeV] / II: T[dV]P[Sar][NMeV]; ester I:1-I:C, II:1-II:C; linker I:N-II:N via Actinocin(9to1))", "values": [{"measurement": "synthesis of cellular RNA", "setting": "[1]", "value": "inhibited"}, {"measurement": "influence on the replication of the HCV RNA", "setting": "HCV RNA", "value": "no influence"}]}]}
